Four molecules from ChEMBL document CHEMBL1133057, “Synthesis and in vitro antibacterial activity of 3-[N-methyl-N-(3-methyl-1,3-thiazolium-2-yl)aminolmethyl cephalosporin derivatives” (2000) can be followed below.

≈ marks a conversion by molar mass, not a printed value.

Assay [1] deals with Salmonella typhimurium. Kind of assay: Compound was tested in vitro for its minimum inhibitory concentration by serial 2-fold agar dilution Muller Hinton method against Salmonella Typhimurium. Conditions: Salmonella enterica. The class given is functional, Salmonella enterica subsp. enterica serovar Typhimurium. (Agar dilution tests growth on a series of plates holding different concentrations.)

Assay [2] deals with Streptococcus pyogenes. Kind of assay: Compound was tested in vitro for its minimum inhibitory concentration by serial 2-fold agar dilution Muller Hinton method against Streptococcus pyogenes 8b. It counts as functional.
Assay [3] deals with Enterobacter cloacae. Kind of assay: Compound was tested in vitro for its minimum inhibitory concentration by serial 2-fold agar dilution Muller Hinton method against Enterobacter cloacae P99. The class given is functional.
The subject of assay [4] is Pseudomonas aeruginosa. The assay is described as follows: Compound was tested in vitro for its minimum inhibitory concentration by serial 2-fold agar dilution Muller Hinton method against Pseudomonas aeruginosa 1771 M. It counts as functional.
Assay [5] concerns Escherichia coli. The assay is described as follows: Compound was tested in vitro for its minimum inhibitory concentration by serial 2-fold agar dilution Muller Hinton method against Escherichia coli TEM. It counts as functional.
For assay [6], the system named is Klebsiella aerogenes. Kind of assay: Compound was tested in vitro for its minimum inhibitory concentration by serial 2-fold agar dilution Muller Hinton method against Klebsiella aerogenes 1522 E. It counts as functional.
In assay [7] the test system is Escherichia coli. The assay is described as follows: Compound was tested in vitro for its minimum inhibitory concentration by serial 2-fold agar dilution Muller Hinton method against Escherichia coli O 55. The class given is functional.
Assay [8] has as its system Pseudomonas aeruginosa. The assay is described as follows: Compound was tested in vitro for its minimum inhibitory concentration by serial 2-fold agar dilution Muller Hinton method against Pseudomonas aeruginosa 9027. The class given is functional.
For assay [9], the system named is Escherichia coli. The assay is described as follows: Compound was tested in vitro for its minimum inhibitory concentration by serial 2-fold agar dilution Muller Hinton method against Escherichia coli 1507E. The class given is functional.
The test system of assay [10] is Klebsiella oxytoca. Kind of assay: Compound was tested in vitro for its minimum inhibitory concentration by serial 2-fold agar dilution Muller Hinton method against Klebsiella oxytoca 1082 E. It counts as functional.
The subject of assay [11] is Escherichia coli. The assay is described as follows: Compound was tested in vitro for its minimum inhibitory concentration by serial 2-fold agar dilution Muller Hinton method against Escherichia coli DC 0. It counts as functional.
The subject of assay [12] is Staphylococcus aureus. The assay is described as follows: Compound was tested in vitro for its minimum inhibitory concentration by serial 2-fold agar dilution Muller Hinton method against Staphylococcus aureus 503. It counts as functional.
In assay [13] the test system is Streptococcus pyogenes. The assay is described as follows: Compound was tested in vitro for its minimum inhibitory concentration by serial 2-fold agar dilution Muller Hinton method against Streptococcus pyogenes A77. It counts as functional.
In assay [14] the test system is Enterobacter cloacae. The assay is described as follows: Compound was tested in vitro for its minimum inhibitory concentration by serial 2-fold agar dilution Muller Hinton method against Enterobacter cloacae 1321. It counts as functional.
Assay [15] deals with Pseudomonas aeruginosa. Kind of assay: Compound was tested in vitro for its minimum inhibitory concentration by serial 2-fold agar dilution Muller Hinton method against Pseudomonas aeruginosa 1771. It counts as functional.
The test system of assay [16] is Pseudomonas aeruginosa. Kind of assay: Compound was tested in vitro for its minimum inhibitory concentration by serial 2-fold agar dilution Muller Hinton method against Pseudomonas aeruginosa 1592 E. It counts as functional.
The test system of assay [17] is Staphylococcus aureus. The assay is described as follows: Compound was tested in vitro for its minimum inhibitory concentration by serial 2-fold agar dilution Muller Hinton method against Staphylococcus aureus SG511. It counts as functional.
Assay [18] concerns Streptococcus pyogenes. The assay is described as follows: Compound was tested in vitro for its minimum inhibitory concentration by serial 2-fold agar dilution Muller Hinton method against Streptococcus pyogenes A 308. The class given is functional.
For assay [19], the system named is Escherichia coli. Kind of assay: Compound was tested in vitro for its minimum inhibitory concentration by serial 2-fold agar dilution Muller Hinton method against Escherichia coli DC 2. It counts as functional.
Assay [20] relates to Staphylococcus aureus. Kind of assay: Compound was tested in vitro for its minimum inhibitory concentration by serial 2-fold agar dilution Muller Hinton method against Staphylococcus aureus 285. The class given is functional.

Regarding `CO/N=C(\C(=O)NC1C(=O)N2C(C(=O)[O-])=C(CN(C)c3sc(C(N)=O)c(C)[n+]3C)CSC12)c1csc(N)n1` (stereo not given), the MIC is 0.049 mg/L (≈ 0.0844 µM) in assay [1]; 12.5 mg/L (≈ 21.5 µM) in assay [2]; 6.25 mg/L (≈ 10.8 µM) in [3]; 0.781 mg/L (≈ 1.34 µM) in assay [4]; 0.049 mg/L (≈ 0.0844 µM) in [5]; 0.025 mg/L (≈ 0.0431 µM) in assay [6]. Further, the minimal inhibitory concentration (MIC) in assay [7] amounted to 0.025 mg/L (≈ 0.0431 µM); in assay [8], 50 mg/L (≈ 86.1 µM); in [9] it was 0.049 mg/L (≈ 0.0844 µM); in [10], 3.12 mg/L (≈ 5.38 µM); in assay [11] it was 0.049 mg/L (≈ 0.0844 µM); in assay [12], 0.195 mg/L (≈ 0.336 µM). For the same molecule, the MIC in assay [13] was found to be 0.007 mg/L (≈ 0.0121 µM); in assay [14] it was 0.013 mg/L (≈ 0.0224 µM); in assay [15], 6.25 mg/L (≈ 10.8 µM); in [16], 25 mg/L (≈ 43.1 µM); in [17], 0.391 mg/L (≈ 0.673 µM); in assay [18], 0.007 mg/L (≈ 0.0121 µM). The MIC was 0.025 mg/L (≈ 0.0431 µM) in assay [19] and 0.781 mg/L (≈ 1.34 µM) in assay [20].
As for `C=CCO/N=C(\C(=O)NC1C(=O)N2C(C(=O)[O-])=C(CN(C)c3sc4c([n+]3C)CCCC4)CSC12)c1csc(N)n1` (stereo not given), the MIC in assay [1] was determined as 0.195 mg/L (≈ 0.323 µM); in assay [2] it was 50 mg/L (≈ 82.8 µM); in assay [3], 12.5 mg/L (≈ 20.7 µM); in [4], 0.781 mg/L (≈ 1.29 µM); in [5] it was 0.391 mg/L (≈ 0.648 µM); in assay [6], 0.195 mg/L (≈ 0.323 µM). In addition, the MIC in assay [7] was determined as 0.049 mg/L (≈ 0.0812 µM); in assay [8], 50 mg/L (≈ 82.8 µM); in [9], 0.391 mg/L (≈ 0.648 µM); in assay [10] it was 6.25 mg/L (≈ 10.4 µM); in [11] it was 0.391 mg/L (≈ 0.648 µM); in assay [12], 0.195 mg/L (≈ 0.323 µM). Besides, the MIC was found to be 0.004 mg/L (≈ 0.00663 µM) in assay [13]; 0.049 mg/L (≈ 0.0812 µM) in assay [14]; 6.25 mg/L (≈ 10.4 µM) in assay [15]; 50 mg/L (≈ 82.8 µM) in assay [16]; 0.391 mg/L (≈ 0.648 µM) in [17]; 0.004 mg/L (≈ 0.00663 µM) in assay [18]. In addition, the figures for the MIC in [19] and in [20] were 0.025 mg/L (≈ 0.0414 µM) and 0.781 mg/L (≈ 1.29 µM), respectively.
As to `CO/N=C(\C(=O)N[C@@H]1C(=O)N2C(C(=O)O)=C(COC(C)=O)CS[C@H]12)c1csc(N)n1` [CEFOTAXIME], the minimum inhibitory concentration (MIC) in assay [1] was found to be 0.025 mg/L (≈ 0.0549 µM); in [2], 100 mg/L (≈ 220 µM); in [3], 100 mg/L (≈ 220 µM); in assay [4] it was 0.098 mg/L (≈ 0.215 µM); in assay [5] it was 0.025 mg/L (≈ 0.0549 µM); in [6], 0.025 mg/L (≈ 0.0549 µM). The MIC in [7] was determined as 0.007 mg/L (≈ 0.0154 µM); in [8], 25 mg/L (≈ 54.9 µM); in assay [9], 0.025 mg/L (≈ 0.0549 µM); in assay [10], 1.56 mg/L (≈ 3.43 µM); in assay [11], 0.025 mg/L (≈ 0.0549 µM); in assay [12] it was 0.781 mg/L (≈ 1.71 µM). The minimum inhibitory concentration (MIC) in assay [13] came out at 0.002 mg/L (≈ 0.00439 µM); in assay [14], 0.007 mg/L (≈ 0.0154 µM); in assay [15], 3.12 mg/L (≈ 6.86 µM); in [16] it was 12.5 mg/L (≈ 27.4 µM); in assay [17], 1.56 mg/L (≈ 3.43 µM); in assay [18] it was 0.007 mg/L (≈ 0.0154 µM). Further, the MIC in assay [19] was determined as 0.013 mg/L (≈ 0.0285 µM); in [20] it was 3.12 mg/L (≈ 6.86 µM).
For the molecule `CO/N=C(\C(=O)NC1C(=O)N2C(C(=O)[O-])=C(CN(C)c3scc(C)[n+]3C)CSC12)c1csc(N)n1` (stereo not given), the MIC is 0.049 mg/L (≈ 0.0911 µM) in [1]; above 100 mg/L in assay [2]; 25 mg/L (≈ 46.5 µM) in assay [3]; 1.56 mg/L (≈ 2.91 µM) in assay [4]; 0.049 mg/L (≈ 0.0911 µM) in assay [5]; 0.049 mg/L (≈ 0.0911 µM) in assay [6]. Further, the MIC in assay [7] was determined as 0.025 mg/L (≈ 0.0465 µM); in assay [8], 25 mg/L (≈ 46.5 µM); in assay [9] it was 0.049 mg/L (≈ 0.0911 µM); in [10] it was 6.25 mg/L (≈ 11.6 µM); in assay [11], 0.049 mg/L (≈ 0.0911 µM); in assay [12], 0.781 mg/L (≈ 1.45 µM). The MIC is 0.004 mg/L (≈ 0.00744 µM) in [13]; 0.013 mg/L (≈ 0.0242 µM) in assay [14]; 12.5 mg/L (≈ 23.2 µM) in [15]; 25 mg/L (≈ 46.5 µM) in assay [16]; 0.781 mg/L (≈ 1.45 µM) in assay [17]; 0.013 mg/L (≈ 0.0242 µM) in assay [18]. The MIC in assay [19] came out at 0.049 mg/L (≈ 0.0911 µM); in [20] it was 1.56 mg/L (≈ 2.91 µM).

A word on the MIC: it is the lowest concentration that inhibits growth of the organism. Low readings indicate inhibition by little substance, high ones a need for much substance.
